Data published in patent EP1897937A1, “Method of culturing NPCs” (NeuroProgen GmbH Leipzig, priority 2006, dated 2008).

Assays:
Assay type in all cases: cell-based, human
hmNPCs [1] = experiment: Short-term proliferation: Ki67/nestin immunostaining; conditions: 100 µM; 5 subsequent days
Description: To determine long-term proliferation, […] were plated and expanded for 2 passages with or without addition of various agents (see below) to the custom expansion media containing the growth factors EGF and FGF2. Different fetal midbrain tissues were included in this study. At the end of the proliferation period, differentiation of […] was induced via replacement of expansion media with mitogen-free media containing 1% FCS, 5 μM forskoline (Sigma-Aldrich Chemie GmbH Munich, Germany), and 100 pg/ml IL-1β (Sigma). The differentiation and expansion media were supplemented with different drugs as appropriate. Prior to immunocytochemistry or protein extraction, […] were allowed to differentiate for 1 week. To determine short-term proliferation via Ki67 immunostaining, the cells were seeded into 24-well plates (70,000 cells/well) and left overnight to rest. P2 receptor agonists (ATP, UTP, ATP + UTP, ADP, ADPβS) were supplied daily for 5 consecutive days. Ki67/nestin double-positive cells were counted in 8 randomly selected fields of nucleotide-treated or untreated samples. For the assessment of MAPK phosphorylation the cells were kept free of mitogens for 2 d prior to addition of the MEK-inhibitor in expansion media. In addition, the MEK-inhibitor was added during the differentiation period 15 min before UTP administration. […] Cover-slips were mounted onto glass slides and examined under a fluorescence microscope (Zeiss Axiovert 200). Acquisition of the cells was performed using the Image-analysis software AxioVision 4 (Carl Zeiss AG, Jena, Germany). The following primary antibodies were used for immunofluorescence: rabbit polyclonal anti-β-tubulin III (anti-Tuj1) antibody, rabbit polyclonal anti-tyrosine hydroxylase antibody , mouse monoclonal anti-nestin antibody (Pharmingen, San Diego, CA, USA), rabbit polyclonal anti-Ki67 antigen antibody (Novocastra Laboratories Ltd, Newcastle upon Tyne, UK). Estimation of the TH-positive cell numbers was performed by counting of cells among approximately 1000 differentiated cells in total within 6 randomly selected fields.

hmNPCs [2] = experiment: Cell death / cell cycle assay (propidium iodide, FACS); conditions: for Sub-G1 / G0/G1 / G2/M / S: 48 h, 100 µM nucleotides, pretreated 30 minutes with 10 µM suramin or 100 µM PPADS where named; for G0/G1 / G2/M / S: mean ± SEM, n = 3; for block of the anti-proliferative effects of ATP, ADP and ADPβS: 30 minutes pretreatment, 10 µM suramin or 100 µM PPADS
Description: Untreated (control) and treated exponentially growing […] were prepared for cell cycle analysis by lysing cells in 300 μl of hypotonic lysis buffer (0.1% sodium citrate, 0.1% Triton X-100, and 50 μg/ml propidium iodide [PI]). […] Histograms of DNA content were acquired using the CellQuest software. […] For data analysis and correction of the background, noise histograms were processed with the ModFit LT software (Verity, Turramurra, Australia).

hmNPCs [3] = experiment: Dopaminergic differentiation: TH protein expression by Western blot; conditions: for expression of TH, pre-treatment before UTP: 10 µM pre-treatment, 100 µM UTP, one week of differentiation
Description: (§1) To determine long-term proliferation, hmNPCs were plated and expanded for 2 passages with or without addition of various agents (see below) to the custom expansion media containing the growth factors EGF and FGF2. Different fetal midbrain tissues were included in this study. At the end of the proliferation period, differentiation of hmNPCs was induced via replacement of expansion media with mitogen-free media containing 1% FCS, 5 µM forskoline (Sigma-Aldrich Chemie GmbH Munich, Germany), and 100 pg/ml IL-1β (Sigma). The differentiation and expansion media were supplemented with different drugs as appropriate. Prior to immunocytochemistry or protein extraction, hmNPCs were allowed to differentiate for 1 week. To determine short-term proliferation via Ki67 immunostaining, the cells were seeded into 24-well plates (70,000 cells/well) and left overnight to rest. P2 receptor agonists (ATP, UTP, ATP + UTP, ADP, ADPβS) were supplied daily for 5 consecutive days. Ki67/nestin double-positive cells were counted in 8 randomly selected fields of nucleotide-treated or untreated samples. For the assessment of MAPK phosphorylation the cells were kept free of mitogens for 2 d prior to addition of the MEK-inhibitor in expansion media. In addition, the MEK-inhibitor was added during the differentiation period 15 min before UTP administration.
(§2) UTP, UDP, ATP, ADP, ADPβS and suramin were purchased from Sigma (Sigma-Aldrich Chemie GmbH Munich, Germany). UTP and UDP were applied at different concentrations (1 µM, 10 µM, 100 µM), ATP at 100 µM, ADP at 100 µM, and ADPβS at100 µM. During expansion of the cells, the nucleotides were renewed once a week with every media change, unless otherwise stated. They were applied once at the beginning of the differentiation period. The P2 receptor antagonist suramin (10 µM) was added to expansion media 30 min prior to addition of UTP (100 µM). The stock solution of the MEK1/2 inhibitor U0126 (Promega Corporation, Mannheim, Germany) was prepared in dimethyl sulfoxide (DMSO) at a concentration of 10 mM. The stock solution was then diluted in 0.1 M PBS to obtain a concentration of 1 mM. MEK inhibitor (final concentration 10 µM) was added to mitogen-free expansion media, 15 min before UTP treatment (1 µM) of hmNPCs.
(§3) In order to prepare protein extracts, hmNPCs were collected, washed with ice-cold PBS and lysed in buffer [10 mM HEPES-KOH (pH 7.9), 10 mM KCI, 1.5 mM MgCl2, 0.1% NP-40], supplemented with protease inhibitor cocktail (Roche). After a brief centrifugation at 4°C/10 000×g, protein concentrations and protein yield from extracts were determined using the Bradford method (Bio-Rad, Hercules, CA, USA). To preserve the phosphorylation state of proteins, extracts for the MAPK experiment were obtained using the PhosphoSafe™ extraction reagent containing phophatase inhibitors (Novagen). […] Membranes were blocked with 5% (wt/vol) nonfat dry milk in PBS-T (PBS, 0.1% (vol/vol) Tween 20) for 2 h at room temperature and subsequently incubated with the desired primary antibody (diluted in PBS containing 5% non-fat milk and 0.1% Tween 20) overnight at 4 °C with gentle agitation. The membrane was incubated with horseradish peroxidase-coupled secondary antibody for 1 h at room temperature. Chemiluminescence detection was performed by incubating the membranes with SuperSignal-Dura substrate (Pierce Biotechnology, Rockford, U.S.A) followed by analysis on a CCD cooling camera (Fuji LAS-1000plus). The chemiluminescence was quantified using the AIDA, two-dimensional densitometry software (Raytest lsotopenmeb, Straubenhardt, Germany).

hmNPCs [4] = experiment: Dopaminergic differentiation: counting of TH-positive cells by immunocytochemistry
Description: as §1, §2
Expanded or one week differentiated hmNPCs were fixed with 4% paraformaldehyde in PBS for 10 min at room temperature and washed with PBS, counterstained with the DNA-binding dye 4'-6-Diamidino-2-phenylindole (DAPI, 2 µg/ml in PBS) for 15 min at room temperature, washed twice in PBS followed by incubation in blocking buffer (10% FCS, 0.2% Triton-X 100 in PBS, pH 7.2) for 30 min at room temperature. After incubation with a primary antibody (over night at 4°C in blocking buffer), the cells were incubated with fluorescent secondary antibodies, Alexa Fluor® 488 conjugate or Alexa Fluor® 594 conjugate (Molecular Probes, Eugene, USA). Cover-slips were mounted onto glass slides and examined under a fluorescence microscope (Zeiss Axiovert 200). Acquisition of the cells was performed using the Image-analysis software AxioVision 4 (Carl Zeiss AG, Jena, Germany). The following primary antibodies were used for immunofluorescence: rabbit polyclonal anti-β-tubulin III (anti-Tuj1) antibody, rabbit polyclonal anti-tyrosine hydroxylase antibody , mouse monoclonal anti-nestin antibody (Pharmingen, San Diego, CA, USA), rabbit polyclonal anti-Ki67 antigen antibody (Novocastra Laboratories Ltd, Newcastle upon Tyne, UK). Estimation of the TH-positive cell numbers was performed by counting of cells among approximately 1000 differentiated cells in total within 6 randomly selected fields.

ERK1/2 = ERK1/2 (MAPK) phosphorylation by Western blot; conditions: for expression of phosphorylated ERK1/2, pre-treatment before UTP: 10 µM pre-treatment, 100 µM UTP, one week of differentiation
Description: as §1, §2
as §3, with “Chemiluminescence detection was performed by incubating the membranes with SuperSignal-Dura substrate (Pierce Biotechnology, Rockford, U.S.A) followed by analysis on a CCD cooling camera (Fuji LAS-1000plus).” left out

hmNPCs [5] = experiment: Long-term proliferation: number of living cells (hemocytometer, trypan blue exclusion)
Description: as §1, §2
Cell counting of control (untreated) and treated hmNPCs was performed using a hemocytometer. Adherent cells were collected by detachment with accutase™ (PAA Laboratories, Pasching, Austria) for 10 min at 37°C. […] The number of total and trypan blue-positive cells was then determined by counting at least 300 cells per sample in a hemocytometer.

hmNPCs [6] = experiment: Western blot of proliferation marker PCNA and survival marker Bcl-2; conditions: 100 µM antagonist, 2 times during the 2 weeks proliferation period, before 1 µM UTP
Description: as §1
In order to prepare protein extracts, hmNPCs were collected, washed with ice-cold PBS and lysed in buffer [10 mM HEPES-KOH (pH 7.9), 10 mM KCI, 1.5 mM MgCl2, 0.1% NP-40], supplemented with protease inhibitor cocktail (Roche). After a brief centrifugation at 4°C/10 000×g, protein concentrations and protein yield from extracts were determined using the Bradford method (Bio-Rad, Hercules, CA, USA). To preserve the phosphorylation state of proteins, extracts for the MAPK experiment were obtained using the PhosphoSafe™ extraction reagent containing phophatase inhibitors (Novagen). […] The chemiluminescence was quantified using the AIDA, two-dimensional densitometry software (Raytest lsotopenmeb, Straubenhardt, Germany). […]

hmNPCs [7] = experiment: Dopaminergic differentiation: TH protein expression by Western blot; conditions: pre-treatment with 100 µM antagonist; UTP 1 µM in expansion, 100 µM in differentiation
[8] = 10 µM antagonist 30 min before 100 µM UTP

Nc1ncnc2c1ncn2[C@@H]1O[C@H](COP(=O)(O)OP(=O)(O)OP(=O)(O)O)[C@@H](O)[C@H]1O [ATP, adenosine triphosphate]
Ki67-positive cells (hmNPCs [1]): strong reduction
Sub-G1 (hmNPCs [2]): 0.56%
G0/G1 (hmNPCs [2]): 91.69 ± 1.19%
G2/M (hmNPCs [2]): 1.42 ± 0.11%
S (hmNPCs [2]): 6.89 ± 1.17%

O=c1ccn([C@@H]2O[C@H](COP(=O)(O)OP(=O)(O)O)[C@@H](O)[C@H]2O)c(=O)[nH]1 [UDP, uridine 5'-diphosphate]
TH protein levels (hmNPCs [3]; 100 µM during the differentiation period): no increase
activity at 1 µM (hmNPCs [3]; Homo sapiens, 1 µM during the differentiation period, read-out: TH expression in immunoblots): 194 ± 7%
activity at 10 µM (hmNPCs [3]; Homo sapiens, 10 µM during the differentiation period, read-out: TH expression in immunoblots): 180 ± 8%

Cc1ccc(C(=O)Nc2ccc(S(=O)(=O)O)c3cc(S(=O)(=O)O)cc(S(=O)(=O)O)c23)cc1NC(=O)c1cccc(NC(=O)Nc2cccc(C(=O)Nc3cc(C(=O)Nc4ccc(S(=O)(=O)O)c5cc(S(=O)(=O)O)cc(S(=O)(=O)O)c45)ccc3C)c2)c1 [suramin]
number of TH-positive cells, antagonist before UTP (hmNPCs [4]; [8]): reduced
TH protein content, antagonist before UTP (hmNPCs [3]; [8]): decreased
expression of TH, pre-treatment before UTP (hmNPCs [3]): remained at basal levels
expression of phosphorylated ERK1/2, pre-treatment before UTP (ERK1/2): remained at basal levels
block of the anti-proliferative effects of ATP, ADP and ADPβS (hmNPCs [2]): failed to block

N#CC(=C(/N)Sc1ccccc1N)/C(C#N)=C(\N)Sc1ccccc1N [U0126]
proliferation of hmNPCs (hmNPCs [5]; data not shown): reduced
expression of TH, pre-treatment before UTP (hmNPCs [3]): remained at basal levels
UTP-induced phosphorylation of ERK1/2, inhibitor pretreatment (ERK1/2; 10 µM inhibitor for 15 min before 1 µM UTP): abrogated
expression of phosphorylated ERK1/2, pre-treatment before UTP (ERK1/2): remained at basal levels

Cc1nc(N=Nc2ccc(S(=O)(=O)O)cc2S(=O)(=O)O)c(COP(=O)(O)O)c(C=O)c1O [PPADS, Pyridoxal-phosphate-6-azophenyl-2',4'-disulphonic acid]
PCNA expression, antagonist before UTP (hmNPCs [6]): reduced the PCNA expression to control levels
block of the anti-proliferative effects of ATP, ADP and ADPβS (hmNPCs [2]): failed to block
TH expression increase by UTP, antagonist pre-treatment (hmNPCs [7]): completely blocked

Nc1ncnc2c1ncn2[C@@H]1O[C@H](COP(=O)(O)OP(=O)(O)O)[C@@H](O)[C@H]1O [ADP, adenosine diphosphate]
number of living cells (hmNPCs [5]; 100 µM each, 2 weeks in expansion media, on coapplication ADP 30 min before UTP, 20160 min): 4 ± 0.5%
Ki67-positive cells (hmNPCs [1]): strong reduction
activity at 100 µM (hmNPCs [4]; Homo sapiens, 168 h, 100 µM each, once, only during the differentiation period of one week, read-out: number of TH-positive (dopaminergic) cells as compared to control): 11 ± 3%
Sub-G1 (hmNPCs [2]): 0.54%
G0/G1 (hmNPCs [2]): 84.64 ± 0.41%
G2/M (hmNPCs [2]): 3.72 ± 0.20%
S (hmNPCs [2]): 11.63 ± 0.2%

Nc1ncnc2c1ncn2[C@@H]1O[C@H](COP(=O)(O)OP(O)(O)=S)[C@@H](O)[C@H]1O [ADPβS]
Ki67-positive cells (hmNPCs [1]): strong reduction
Sub-G1 (hmNPCs [2]): 0.82%
G0/G1 (hmNPCs [2]): 84.21 ± 0.06%
G2/M (hmNPCs [2]): 3.61 ± 0.01%
S (hmNPCs [2]): 12.17 ± 0.05%
